According to patent US20070128217A1 (priority 2003, published 2007):

Key:
[1] = test system: antibodies in sera from SARS patients (sera 1a, 1b, 2, 6, 37, 62, London, SARS-yellow, SARS-green); assay type: binding, human; design: Binding of serum 6 to linear peptides of protein X1 of SARS-CoV Urbani / Binding of serum 37 to linear peptides of protein X1 of SARS-CoV Urbani / Binding of serum 6 to looped/cyclic peptide (PEPSCAN-ELISA) / Binding of serum 37 to looped/cyclic peptide (PEPSCAN-ELISA) / Binding of serum 37 to looped/cyclic peptides of protein X1 of SARS-CoV Urbani / Binding of serum 6 to linear peptides of protein X2 / Binding of serum 37 to linear peptides of protein X2 / Binding of serum 37 to looped/cyclic peptides of protein X2 of SARS-CoV Urbani / Binding of serum 6 to linear peptides of protein M of SARS-CoV Urbani / Binding of serum 37 to linear peptides of protein M of SARS-CoV Urbani / Binding of serum 6 to looped/cyclic peptides of protein M of SARS-CoV Urbani / Binding of serum 37 to looped/cyclic peptides of protein M of SARS-CoV Urbani / Binding of serum 6 to linear peptides of protein X3 of SARS-CoV Urbani / Binding of serum 37 to linear peptides of protein X3 of SARS-CoV Urbani / Binding of serum 37 to looped/cyclic peptides of protein X3 of SARS-CoV Urbani / Binding of serum 6 to linear peptides of protein X4 of SARS-CoV Urbani / Binding of serum 37 to linear peptides of protein X4 of SARS-CoV Urbani / Binding of serum 37 to looped/cyclic peptides of protein X4 of SARS-CoV Urbani / Binding of serum 6 to linear peptides of protein X5 of SARS-CoV Urbani / Binding of serum 37 to linear peptides of protein X5 of SARS-CoV Urbani / Binding of serum 37 to looped/cyclic peptides of protein X5 of SARS-CoV Urbani / Binding of serum 6 to linear peptides of protein N of SARS-CoV Urbani / Binding of serum 37 to linear peptides of protein N of SARS-CoV Urbani / Binding of serum 6 to linear peptide (PEPSCAN-ELISA) / Binding of serum 1a to looped/cyclic peptides of protein N of SARS-CoV Urbani / Binding of serum 1b to looped/cyclic peptides of protein N of SARS-CoV Urbani / Binding of serum 2 to looped/cyclic peptides of protein N of SARS-CoV Urbani / Binding of serum 6 to looped/cyclic peptides of protein N of SARS-CoV Urbani / Binding of serum 37 to looped/cyclic peptides of protein N of SARS-CoV Urbani / Binding of serum 62 to looped/cyclic peptides of protein N of SARS-CoV Urbani / Binding of serum London to looped/cyclic peptides of protein N of SARS-CoV Urbani / Binding of serum SARS-green to looped/cyclic peptides of protein N of SARS-CoV Urbani: unit not given here
[2] = test system: control sera (pooled serum of ten healthy LUMC hospital workers; commercial negative donor pooled serum from the Dutch bloodbank); assay type: binding, human; design: Binding of Control serum LUMC to linear peptides / Binding of Control serum Blood-bank to linear peptides / Binding of Control serum LUMC to looped peptides / Binding of Control Serum Blood-Bank to Looped peptides / Binding of Control serum LUMC to linear peptides of the protein M of SARS-CoV Urbani / Binding of Control serum Blood-bank to linear peptides of the protein M of SARS-CoV Urbani / Binding of Control serum LUMC to looped peptides of the protein M of SARS-CoV Urbani / Binding of Control Serum Blood-Bank to Looped peptides of the protein M of SARS-CoV Urbani: unit not given here
[3] = test system: rabbit serum obtained by immunizing a rabbit with the SARS-CoV strain Frankfurt 1; assay type: binding; design: Binding of a rabbit serum to linear peptides / Binding of a rabbit serum to looped peptides / Rabbit serum linear peptides / Rabbit serum looped peptides / Binding of a rabbit serum to linear peptides of protein N of SARS-CoV Urbani (Rabbit serum linear peptides) / Binding of a rabbit serum to looped/cyclic peptides of protein N of SARS-CoV Urbani (Rabbit serum looped peptides): unit not given here

AAFRDVLVVLNKRTN
Binding of serum 1a to linear peptides of protein X5 of SARS-CoV Urbani [1]: 0.6
Binding of serum 1a to looped/cyclic peptides of protein X5 of SARS-CoV Urbani [1]: 0.6
Binding of serum 1b to linear peptides of protein X5 of SARS-CoV Urbani [1]: 0.6
Binding of serum 1b to looped/cyclic peptides of protein X5 of SARS-CoV Urbani [1]: 0.4
Binding of serum 2 to linear peptides of protein X5 of SARS-CoV Urbani [1]: 0.6
Binding of serum 2 to looped/cyclic peptides of protein X5 of SARS-CoV Urbani [1]: 0.6
Binding of serum 6 to linear peptides of protein X5 of SARS-CoV Urbani [1]: 0.8
Binding of serum 6 to looped/cyclic peptides of protein X5 of SARS-CoV Urbani [1]: 0.8
Binding of serum 37 to linear peptides of protein X5 of SARS-CoV Urbani [1]: 0.5
Binding of serum 37 to looped/cyclic peptides of protein X5 of SARS-CoV Urbani [1]: 0.6
Binding of serum 62 to linear peptides of protein X5 of SARS-CoV Urbani [1]: 0.4
Binding of serum 62 to looped/cyclic peptides of protein X5 of SARS-CoV Urbani [1]: 0.5
Binding of serum London to linear peptides of protein X5 of SARS-CoV Urbani [1]: 0.6
Binding of serum London to looped/cyclic peptides of protein X5 of SARS-CoV Urbani [1]: 1.0
Binding of serum SARS-green to linear peptides of protein X5 of SARS-CoV Urbani [1]: 0.1
Binding of serum SARS-green to looped/cyclic peptides of protein X5 of SARS-CoV Urbani [1]: 0.4
Binding of serum SARS-yellow to linear peptides of protein X5 of SARS-CoV Urbani [1]: 0.8
Binding of serum SARS-yellow to looped/cyclic peptides of protein X5 of SARS-CoV Urbani [1]: 0.3
Binding of Control Serum Blood-Bank to Looped peptides [2]: 0.7
Binding of Control serum Blood-bank to linear peptides [2]: 0.6
Binding of Control serum LUMC to linear peptides [2]: 0.8
Binding of Control serum LUMC to looped peptides [2]: 0.4
Rabbit serum linear peptides [3]: 0.5
Rabbit serum looped peptides [3]: 0.6

CNLLLLFVTIYSHLL
Binding of serum 1a to linear peptides of protein X1 of SARS-CoV Urbani [1]: 0.7
Binding of serum 1a to looped/cyclic peptide (PEPSCAN-ELISA) [1]: 0.5
Binding of serum 1b to linear peptides of protein X1 of SARS-CoV Urbani [1]: 0.5
Binding of serum 1b to looped/cyclic peptide (PEPSCAN-ELISA) [1]: 0.4
Binding of serum 2 to linear peptides of protein X1 of SARS-CoV Urbani [1]: 0.5
Binding of serum 2 to looped/cyclic peptide (PEPSCAN-ELISA) [1]: 0.4
Binding of serum 6 to linear peptides of protein X1 of SARS-CoV Urbani [1]: 0.4
Binding of serum 6 to looped/cyclic peptide (PEPSCAN-ELISA) [1]: 0.3
Binding of serum 37 to linear peptides of protein X1 of SARS-CoV Urbani [1]: 0.6
Binding of serum 37 to looped/cyclic peptide (PEPSCAN-ELISA) [1]: 0.5
Binding of serum 62 to linear peptides of protein X1 of SARS-CoV Urbani [1]: 0.4
Binding of serum 62 to looped/cyclic peptide (PEPSCAN-ELISA) [1]: 0.5
Binding of serum London to linear peptides of protein X1 of SARS-CoV Urbani [1]: 0.2
Binding of serum London to looped/cyclic peptide (PEPSCAN-ELISA) [1]: 0.2
Binding of serum SARS-green to linear peptides of protein X1 of SARS-CoV Urbani [1]: 0.1
Binding of serum SARS-green to looped/cyclic peptide (PEPSCAN-ELISA) [1]: 0.2
Binding of serum SARS-yellow to linear peptides of protein X1 of SARS-CoV Urbani [1]: 0.4
Binding of serum SARS-yellow to looped/cyclic peptide (PEPSCAN-ELISA) [1]: 0.4
Binding of Control Serum Blood-Bank to Looped peptides [2]: 0.5
Binding of Control serum Blood-bank to linear peptides [2]: 0.4
Binding of Control serum LUMC to linear peptides [2]: 0.4
Binding of Control serum LUMC to looped peptides [2]: 0.5
Binding of a rabbit serum to linear peptides [3]: 0.1
Binding of a rabbit serum to looped peptides [3]: 0.6
